The source of these data is EP2387997A1, “Use of dronedarone for the preparation of a medicament for the prevention of cardiovascular events in patients who developed permanent atrial fibrillation throughout the period the dronedarone is administered” (SANOFI, priority 2010, dated 2011).

Test [1] concerns patients with persistent atrial fibrillation. As to conditions: cited from earlier work; for number of strokes per 100 patient-years of follow-up: persistent atrial fibrillation, placebo 1.91, calculated from the article of Singh et al, page 1866; for increasing the time to a recurrence of atrial fibrillation: versus placebo; for increasing the time to a recurrence of atrial fibrillation / effectiveness in increasing the time to a recurrence of atrial fibrillation relative to sotalol: P<0.001.

Test [2] has as its system stroke. As to conditions: ATHENA trial; cited from earlier work.
Test [3] has as its system patients who developed permanent atrial fibrillation/flutter. The experiment in a line: prospective, multinational, double-blind, randomized, multi-center, placebo-controlled, parallel group trial of dronedarone hydrochloride. In kind it is in vivo. The procedure:
• Patients in permanent atrial fibrillation • Patients in unstable hemodynamic condition such as acute pulmonary edema within 12 hours prior to start of study medication; cardiogenic shock; treatment with IV pressor agents; patients on respirator; congestive heart failure of stage NYHA IV within the last 4 weeks; uncorrected, hemodynamically significant primary obstructive valvular disease; hemodynamically significant obstructive cardomyopathy; a cardiac operation or revascularization procedure within 4 weeks preceding randomization • Planned major non-cardiac or cardiac surgery or procedures including surgery for valvular heart disease, coronary artery bypass graft (CABG), percutaneous coronary intervention (PCI), or on urgent cardiac transplantation list • Acute myocarditis or constrictive pericarditis • Bradycardia < 50 bpm and/or PR-interval ≥ 0.28 sec on the last 12-lead ECG. • Significant sinus node disease (documented pause of 3 seconds or more) or 2nd or 3rd degree atrioventricular block (AV-block) unless treated with a pacemaker.

Structures are written as SMILES. Where a name gives a salt, the structure may show the parent alone. Read-outs that look alike come from different tables or passages of the source.

`CC(C)NCC(O)c1ccc(NS(C)(=O)=O)cc1` (centres unmarked) [sotalol]: in test [1], the “number of strokes per 100 patient-years of follow-up” value was 2.71 per 100 patient-years and the “increasing the time to a recurrence of atrial fibrillation” value is reported as “significantly more effective than placebo”.

In the case of `CCCCc1oc2ccc(NS(C)(=O)=O)cc2c1C(=O)c1ccc(OCCCN(CCCC)CCCC)cc1` [dronedarone, 2-n-butyl-3-[4-(3-di-n-butylaminopropoxy)benzoyl]-5-methylsulfonamido-benzofuranne], in test [2], the incidence of stroke result is on record as “ability to reduce the incidence of stroke”.

As for `CCCCc1oc2ccc(NS(C)(=O)=O)cc2c1C(=O)c1ccc(OCCCN(CCCC)CCCC)cc1` [dronedarone hydrochloride], the “events (stroke, Acute Coronary Syndrome (ACS) or cardiovascular death)” value in test [3] (among the 178 patients who developed permanent atrial fibrillation/flutter on dronedarone hydrochloride, placebo group 24 events (295 patients)) amounted to 12 events. Besides, in test [3] (dronedarone versus placebo, Cox's proportional hazard model, patients who developed permanent atrial fibrillation/flutter), the “Calculated relative risk of stroke, Acute Coronary Syndrome (ACS) or cardiovascular death” value was 0.805. Also, the “patients developed permanent atrial fibrillation/flutter” value in test [3] (of 2301 patients treated with dronedarone hydrochloride (400 mg of base, one tablet morning and evening, 12 to 30 months), placebo group 295) is reported as 178 patients. Moreover, the “decrease of the relative risk of stroke, Acute Coronary Syndrome (ACS) or cardiovascular death” value in test [3] (x = 1-RR, versus placebo, patients who developed permanent atrial fibrillation/flutter) is 20%.

Turning to `CCCCc1oc2ccccc2c1C(=O)c1cc(I)c(OCCN(CC)CC)c(I)c1` [amiodarone], the “effectiveness in increasing the time to a recurrence of atrial fibrillation relative to sotalol” value in test [1] (analysis according to the treatment actually received) is “four times as effective”. In addition, in test [1] (intention-to-treat analysis), the “effectiveness in increasing the time to a recurrence of atrial fibrillation relative to sotalol” value is “six times as effective as sotalol”. In addition, in test [1], the “number of strokes per 100 patient-years of follow-up” value is 2.06 per 100 patient-years and the “increasing the time to a recurrence of atrial fibrillation” value was “significantly more effective than placebo”.
